Tests used:
SNL L5/L6 rats = test: L5/L6 spinal nerve ligation (SNL) Chung pain model, tactile allodynia (von Frey); assay type: in vivo, rat; settings: for Rat SNL tactile allodynia, anti-allodynia (statement): compared to baseline and post-SNL
Source text: The Spinal Nerve Ligation is an animal model representing peripheral nerve injury generating a neuropathic pain syndrome. In this model experimental animals develop the clinical symptoms of tactile allodynia and hyperalgesia. L5/L6 Spinal nerve ligation (SNL) injury was induced using the procedure of Kim and Chung (Kim et al., Pain 50:355-363 (1992)) in male Sprague-Dawley rats (Harlan; Indianapolis, Ind.) weighing 200 to 250 grams.
Anaesthesia was induced with 2% isofluorane in O2 at 2 L/min and maintained with 0.5% isofluorane in O2. Rats were then shaved and aseptically prepared for surgeries. A 2 cm paraspinal incision was made at the level of L4-S2. L4/L5 was exposed by removing the transverse process above the nerves with a small rongeur. The L5 spinal nerve is the larger of the two visible nerves below the transverse process and lies closest to the spine. The L6 spinal nerve is located beneath the corner of the slope bone. A home-made glass Chung rod was used to hook L5 or L6 and a pre-made slip knot of 4.0 silk suture was placed on the tip of the rod just above the nerve and pulled underneath to allow for the tight ligation. The L5 and L6 spinal nerves were tightly ligated distal to the dorsal root ganglion. The incision was closed, and the animals were allowed to recover for 5 days.
Sham control rats underwent the same operation and handling as the experimental animals, but without SNL.
Prior to initiating drug delivery, baseline behavioural testing data is obtained. At selected times after infusion of the Test or Control Article behavioural data can then be collected again.
The assessment of tactile allodynia consisted of measuring the withdrawal threshold of the paw ipsilateral to the site of nerve injury in response to probing with a series of calibrated von Frey filaments (innocuous stimuli). Animals were acclimated to the suspended wire-mesh cages for 30 min before testing. Each von Frey filament was applied perpendicularly to the plantar surface of the ligated paw of rats for 5 sec. A positive response was indicated by a sharp withdrawal of the paw. For rats, the first testing filament is 4.31. Measurements were taken before and after administration of test articles. […] The protocol was repeated until three changes in behaviour were determined (“up and down” method) (Chaplan et al., J. Neurosci. Methods 53:55-63 (1994)). The 50% paw withdrawal threshold was determined as (10^[Xf+kδ])/10,000, where Xf=the value of the last von Frey filament employed, k=Dixon value for the positive/negative pattern, and δ=the logarithmic difference between stimuli. The cut-off values for rats were no less than 0.2 g and no higher than 15 g (5.18 filament); for mice no less than 0.03 g and no higher than 2.34 g (4.56 filament). A significant drop of the paw withdrawal threshold compared to the pre-treatment baseline is considered tactile allodynia.
Rat SNL tactile allodynia were tested for Compounds 1-4 and 9-12 at 60 minutes compared to baseline and post-SNL. […] FIG. 1 is a plot of the antiallodynic effects of compound 4 (i.p.) tested in SNL L5/L6 rats using von Frey at three different doses, namely 3, 10 and 30 mpk, compared to vehicle alone. […] Rat SNL tactile allodynia were tested at 1, 2 and 4 hours after drug treatment (Table 6).

[1] = Rat Early Pharmacokinetic (EPK) study; assay type: in vivo; settings: 30 mg/kg PO, 0.5% CMC; for Tmax: male, Sprague-Dawley, blood
Protocol: Male Sprague-Dawley rats were dosed via oral (PO) gavage in the detailed formulation. Blood samples were collected from the animals at 6 timepoints out to 4 hours post-dose. Pharmacokinetic analysis was performed on the LC-MS/MS measured concentrations for each timepoint of each compound.

[2] = molecular target: T1, Nav1.7 channels expressed in HEK cells (Homo sapiens, UniProt Q15858); test: Nav1.7 voltage-clamp electrophysiological assay (enhancement of slow inactivation); assay type: cell-based; settings: n 5 cells
T1 construct: expressed in transfected cells; host or cells: HEK cells
Protocol: To examine the effects of compounds on enhancement of slow inactivation of Nav1.7 and Nav1.8 channels expressed in HEK cells the culture media was replaced with an extracellular solution containing (in mM): 137 NaCl, 4 KCl, 1.8 CaCl2, 1 MgCl2, 10 HEPES, 10 glucose, pH adjusted to 7.4 with NaOH. The intracellular solution contained (in mM): 130 KCl, 1 MgCl2, 5 EGTA, 10 HEPES, 5 K2ATP, adjusted to pH 7.3 with KOH. Whole-cell recordings, preparation and application of test compounds were performed in a similar manner to the Cav3.2 electrophysiological assays. Voltage protocols were applied to quantify the effects of test compounds to enhance slow inactivation for Nav1.7 and Nav1.8.

T1 sequence (Q15858 whole entry): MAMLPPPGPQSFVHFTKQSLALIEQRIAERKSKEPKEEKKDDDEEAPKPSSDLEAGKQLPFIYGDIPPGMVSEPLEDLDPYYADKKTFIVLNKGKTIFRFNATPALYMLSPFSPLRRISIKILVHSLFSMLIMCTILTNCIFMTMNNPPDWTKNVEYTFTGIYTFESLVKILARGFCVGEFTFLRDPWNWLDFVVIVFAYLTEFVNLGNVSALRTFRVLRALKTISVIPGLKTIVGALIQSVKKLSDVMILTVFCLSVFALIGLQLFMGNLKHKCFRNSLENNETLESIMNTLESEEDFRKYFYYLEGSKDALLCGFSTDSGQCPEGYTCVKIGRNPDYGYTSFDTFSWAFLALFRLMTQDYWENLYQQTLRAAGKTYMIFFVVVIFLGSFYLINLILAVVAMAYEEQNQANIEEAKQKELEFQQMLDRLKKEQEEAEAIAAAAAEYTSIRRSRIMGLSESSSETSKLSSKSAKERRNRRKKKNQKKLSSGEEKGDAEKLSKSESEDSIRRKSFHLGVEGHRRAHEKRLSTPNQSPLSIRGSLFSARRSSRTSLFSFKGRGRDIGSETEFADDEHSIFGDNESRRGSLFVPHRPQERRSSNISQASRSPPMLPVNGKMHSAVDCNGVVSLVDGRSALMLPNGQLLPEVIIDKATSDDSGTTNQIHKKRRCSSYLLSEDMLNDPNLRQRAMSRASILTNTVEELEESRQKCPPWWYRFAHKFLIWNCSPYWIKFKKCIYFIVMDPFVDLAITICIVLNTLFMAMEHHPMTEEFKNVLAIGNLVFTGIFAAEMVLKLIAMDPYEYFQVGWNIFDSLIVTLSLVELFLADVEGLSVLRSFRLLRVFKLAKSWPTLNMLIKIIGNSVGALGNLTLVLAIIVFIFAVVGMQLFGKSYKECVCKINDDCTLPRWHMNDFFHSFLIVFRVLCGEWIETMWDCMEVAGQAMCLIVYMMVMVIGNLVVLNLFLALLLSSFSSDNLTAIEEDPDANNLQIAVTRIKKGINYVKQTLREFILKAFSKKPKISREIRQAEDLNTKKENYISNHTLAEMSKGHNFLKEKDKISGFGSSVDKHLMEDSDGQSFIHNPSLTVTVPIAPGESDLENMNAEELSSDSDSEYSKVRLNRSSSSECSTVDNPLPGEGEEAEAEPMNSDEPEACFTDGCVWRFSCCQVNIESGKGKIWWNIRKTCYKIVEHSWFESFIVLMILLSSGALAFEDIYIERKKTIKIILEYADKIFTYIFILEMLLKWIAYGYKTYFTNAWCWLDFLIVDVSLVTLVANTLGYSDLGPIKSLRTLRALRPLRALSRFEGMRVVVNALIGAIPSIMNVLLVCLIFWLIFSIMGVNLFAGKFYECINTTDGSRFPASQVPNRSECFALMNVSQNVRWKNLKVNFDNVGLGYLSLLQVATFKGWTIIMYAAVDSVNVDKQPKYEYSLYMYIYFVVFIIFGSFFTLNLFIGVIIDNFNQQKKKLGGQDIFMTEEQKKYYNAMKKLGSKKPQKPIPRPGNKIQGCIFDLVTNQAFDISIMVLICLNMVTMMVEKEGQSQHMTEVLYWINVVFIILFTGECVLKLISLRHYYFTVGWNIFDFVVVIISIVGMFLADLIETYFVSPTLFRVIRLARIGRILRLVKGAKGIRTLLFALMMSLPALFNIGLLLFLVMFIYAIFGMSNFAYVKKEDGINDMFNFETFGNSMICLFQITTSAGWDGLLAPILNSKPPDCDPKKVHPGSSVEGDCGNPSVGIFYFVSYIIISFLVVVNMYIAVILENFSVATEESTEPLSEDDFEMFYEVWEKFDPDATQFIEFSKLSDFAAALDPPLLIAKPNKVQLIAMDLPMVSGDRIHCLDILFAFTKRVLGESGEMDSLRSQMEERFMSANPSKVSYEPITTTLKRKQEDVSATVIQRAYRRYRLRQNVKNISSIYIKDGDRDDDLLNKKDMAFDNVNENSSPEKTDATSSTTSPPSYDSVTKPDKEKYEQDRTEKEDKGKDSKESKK

| Dose Normalized AUC [1] [nM·h] | Dose Normalized Cmax [1] [nM] | Tmax [1] [min] | Fraction current remaining ([2]; concentration tested 10 μM) | Fraction current remaining ([2]; concentration tested 100 μM) | SMILES | Rat SNL Tactile Allodynia (% Antiallodynia) (SNL L5/L6 rats; 1 hour after drug treatment) [%] | Rat SNL Tactile Allodynia (% Antiallodynia) (SNL L5/L6 rats; 2 hours after drug treatment) [%] | Rat SNL Tactile Allodynia (% Antiallodynia) (SNL L5/L6 rats; 4 hours after drug treatment) [%] | Rat SNL tactile allodynia, anti-allodynia (statement) (SNL L5/L6 rats) |
| --- | --- | --- | --- | --- | --- | --- | --- | --- | --- |
| 993 | 333 | 102 | – | – | O=C1CN(C(=O)NC(c2ccccc2)c2ccccc2)CCN1 [Compound 1, N-benzhydryl-3-oxopiperazine-1-carboxamide] | 10 | 19 | 26 | significant anti-allodynia |
| 1087 | 730 | 30 | – | – | O=C1CN(C(=O)C(c2ccccc2)c2ccccc2)CCN1 [Compound 7, 4-(2,2-diphenylacetyl)piperazin-2-one] | 10 | 9 | 14 | – |
| 185 | 132 | 40.2 | – | – | O=C1CN(C(=O)C=C(c2ccccc2)c2ccccc2)CCN1 [Compound 8, 4-(3,3-diphenylacryloyl)piperazin-2-one] | 17 | 24 | 17 | – |

More lines, now with the values behind:

| SMILES | Dose Normalized AUC [1] [nM·h] | Dose Normalized Cmax [1] [nM] | Tmax [1] [min] | Fraction current remaining ([2]; concentration tested 10 μM) | Fraction current remaining ([2]; concentration tested 100 μM) | Rat SNL Tactile Allodynia (% Antiallodynia) (SNL L5/L6 rats; 1 hour after drug treatment) [%] | Rat SNL Tactile Allodynia (% Antiallodynia) (SNL L5/L6 rats; 2 hours after drug treatment) [%] | Rat SNL Tactile Allodynia (% Antiallodynia) (SNL L5/L6 rats; 4 hours after drug treatment) [%] | Rat SNL tactile allodynia, anti-allodynia (statement) (SNL L5/L6 rats) |
| --- | --- | --- | --- | --- | --- | --- | --- | --- | --- |
| O=C1CN(C(=O)C[S+]([O-])C(c2ccccc2)c2ccccc2)CCN1 (centres unmarked) [Compound 2, 4-(2-(benzhydrylsulfinyl)acetyl)piperazin-2-one] | 283 | 182 | 30 | – | – | – | – | – | – |
| O=C1CN(C(=O)CC(c2ccc(F)cc2)c2ccc(F)cc2)CCN1 [Compound 9, 4-(3,3-bis(4-fluorophenyl)propanoyl)piperazin-2-one] | – | – | – | 0.93 | 0.86 | 7 | 10 | 7 | significant anti-allodynia |
| O=C1CN(C(=O)C(c2ccc(Cl)cc2)c2ccc(Cl)cc2)CCN1 [Compound 13, 4-(2,2-bis(4-chlorophenyl)acetyl)piperazin-2-one] | – | – | – | – | – | – | – | – | significant anti-allodynia |
| CC1(C)C(=O)NCCN1C(=O)CC(c1ccc(F)cc1)c1ccc(F)cc1 [Compound 15, 4-(3,3-bis(4-fluorophenyl)propanoyl)-3,3-dimethylpiperazin-2-one] | – | – | – | – | – | 11 | 8 | 15 | – |
